Strand notation (5' to 3'): a small letter for the sugar, then the base; units joined by * are phosphorothioate-linked, units joined directly phosphodiester-linked; [ ] holds rarer units or linkages, { } end groups; capitals alone tell only the bases. d = 2'-deoxy (DNA); m = 2'-O-methyl; r = 2'-OH (RNA)
Assays:
[1] = test system: lnc-FAM164A1; test: Silencing of lnc-FAM164A1 by antisense and si-RNA oligonucleotides on human PBMC-derived macrophages (RT-PCR); type: cell-based; details: for potency of silencing of lnc-FAM164A1: compared among 10 different siRNA oligonucleotides in human macrophages
Experimental: (§1) Silencing of lnc-FAM164A1 by antisense and si-RNA oligonucleotides on human PBMC-derived macrophages. Lnc-FAM164A1 RNA silencing was performed on human PBMC-derived macrophagesas using SilenceMag (BOCA Scientific, Boca Raton, Fla.) at final concentration of 50-100 nM.32 36-48 hours after transfection, macrophages were stimulated by 10 ng/mL LPS for 2-6 hours before collection of macrophages and cell culture medium. Anti-sense LNATM long RNA GepmeR oligonucleotides target lnc-FAM164A1 (Sequence 5′-GGTAAGAAATAGGTTG-3′(SEQ ID NO: 52)) and nonspecific negative control oligonucleotides (Sequence 5′-AACACGTCTATACGC-3′(SEQ ID NO: 53)) were designed by Exiqon A/S (Vedbaek, Denmark). Si-RNA Oligonucleotides targeting lnc-FAM164A1 and luciferase control siRNA oligos were designed by Axolabs (Kulmback, Germany). Their sequences and chemical modifications are as follows (A, G, U, C: RNA nucleotide; a, g, u, c: 2′-O-methyl-nucleotide, s: Phosphorothioate, dT: desoxy-T residue): Luciferase control siRNA (XD-00194): Sense strand: 5′-cuuAcGcuGAGuAcuucGAdTsdT-3′ (SEQ ID NO: 54); Antisense strand: 5′-UCGAAGuACUcAGCGuAAGdTsdT-3′ (SEQ ID NO: 4). Lnc-FAM164A1 specific siRNA oligo#5 (XD-05325): 5′-ucAccAuuAucuucAuAcudTsdT-3′(SEQ ID NO: 5) Antisense strand: 5′-AGuAUGAAGAuAAUGGUGAdTsdT-3′ (SEQ ID NO: 6). Lnc-FAM164A1 specific siRNA oligo#8 (XD-05328): 5′-uguGcuAAAAuAcuGAGAudTsdT-3′ (SEQ ID NO: 7); Antisense strand: 5′-AUCUcAGuAUUUuAGcAcAdTsdT-3′ (SEQ ID NO: 8).
RNA extraction and RT-PCR. Total RNA were extracted using an Illustra RNAspin Mini kit (GE Healthcare, Piscataway, N.J.) and the genomic DNA was removed by on-column DNase I digestion at RT for 15 minutes. cDNAs were synthesized using a high capacity cDNA reverse transcription kit (Applied Biosystems, Carlsbad, Calif.). Real-time PCR was performed on a 7900HT fast real-time PCR system (Applied Biosystems). […]

[2] = test system: human PBMC-derived macrophages; test: Cytokine/chemokine mRNA (RT-PCR) and protein (ELISA) in LPS-activated human PBMC-derived macrophages after lnc-FAM164A1 silencing; type: cell-based; details: for TNF-α mRNA: FIG. 11E
Experimental: as §1
(§2) RNA extraction and RT-PCR. Total RNA were extracted using an Illustra RNAspin Mini kit (GE Healthcare, Piscataway, N.J.) and the genomic DNA was removed by on-column DNase I digestion at RT for 15 minutes. cDNAs were synthesized using a high capacity cDNA reverse transcription kit (Applied Biosystems, Carlsbad, Calif.). Real-time PCR was performed on a 7900HT fast real-time PCR system (Applied Biosystems). Taqman probe and primers for lnc-FAM164A1 were designed by Integrated DNA Technologies and listed as follows: Probe: 5′-/56-FAM/ATGG CCTCA/ZEN/GTTAGGACTGCTTGG/3IABkFQ/-3′ (SEQ ID NO: 9); Primer1: 5′-GATGGGTGC TGGGAGTATAAG-3′ (SEQ ID NO: 10); Primer2: 5′-[…]-3′ (SEQ ID NO: 11). Other Taqman probes for IL-1β, IL-6, IL-10, CCL2, TNF-α, and GAPDH was purchased from Life Technologies. Relative expression of each gene was normalized by GAPDH.
ELISA. Duoset ELISA kits (R&D systems, Minneapolis, Minn.) were used to detect the levels of cytokines (human and mouse CCL2, IL-6, TNF-α) in culture medium from macrophages or mouse plasma.

[3] = test system: NF-κB signaling; test: NF-κB inhibitor pretreatment of LPS-stimulated PBMC-derived macrophages (RT-PCR); type: cell-based, human; details: 3-30 μM, dose-dependent; 30 minutes pretreatment, 10 ng/mL LPS 6 hours
Experimental: FIGS. 10A and 18B. (FIG. 10A) Time course of lnc-FAM164A1 and cytokines expression in LPS-stimulated PBMC-derived macrophages. Human PBMC-derived macrophages were stimulated with 10 ng/mL LPS for 6, 12 and 24 hours. Lnc-FAM164A1 RNA, IL-1β, IL-6 and TNF-α mRNA expression were determined by RT-PCR and normalized by GAPDH expression. (Representative results of 2 different donors). […] Human PBMC-derived macrophages were pretreated with 3-30 μM […] for 30 minutes before the stimulation with 10 ng/mL LPS for 6 hours. Lnc-FAM164A1 RNA, IL-1β, IL-6 and TNF-α mRNA expression were determined by RT-PCR and normalized by GAPDH expression (Representative data from 2 different donors).
as §2, with “Other Taqman probes for IL-1β, IL-6, IL-10, CCL2, TNF-α, and GAPDH was purchased from Life Technologies. Relative expression of each gene was normalized by GAPDH.” left out

[4] = test system: human PBMC-derived macrophages; test: Induction of lnc-FAM164A1 expression in human PBMC-derived macrophages (RT-PCR); type: cell-based; details: 10 ng/mL cytokine, 3 hours
Experimental: FIGS. 1A-1E show LPS treatment increases the expression of lnc-FAM164A1 in human macrophages, PBMCs and white blood cells in humanized Hu-CD34 NSG mice. […] Human PBMC-derived macrophages were stimulated with 10 ng/mL LPS for 3h or 6h (FIG. 1B, P<0.05 LPS vs control; n=5-6 different donors). Human PBMC was isolated from citrated whole blood derived stimulated with 10 ng/mL LPS for 6 hours ex vivo (FIG. 1C, P<0.05 LPS vs control; n=3-4 different donors). Hu-CD34 NSG mice were stimulated with 5 mg/kg of LPS for 6 hours (FIG. 1D, P<0.05, NSG control vs NSG +LPS, n=4 mice per group). Relative fold change of the lnc-FAM164A1 expression was determined by RT-PCR (FIGS. 1B-1D). […]
FIG. 9A-9C show human PBMC-derived macrophages were stimulated with 10 ng/mL human IL-6 and TNF-α for 3 hours. Relative fold change of the lnc-FAM164A1 expression was determined by RT-PCR (P<0.05 LPS vs control; n=3-4 different donors) (FIG. 9A). […] Expression of lnc-FAM164A1 RNA in liver, spleen and lung isolated from the endotoxemic mice was determined by RT-PCR (P<0.05, Spleen vs Lung; n=4 mice per group) (FIG. 9B). […] Lnc-FAM164A1 RNA, IL-1β and GAPDH mRNA expression were determined by RT-PCR and shown as the ratio of nuclear/cytoplasmic in unstimulated macrophages (Left Panel) and LPS-treated macrophages (Right Panel) (n=2 different donors). […]

[5] = LPS-stimulated human macrophages

Row | Molecule | LPS-induced CCL2 mRNA expression and protein release [2, 5] | LPS-induced IL-6 mRNA expression and protein release [2, 5] | potency of silencing of lnc-FAM164A1 [1] | TNF-α mRNA [2, 5] | lnc-FAM164A1 expression [4] | also measured
1 | 5′-GGTAAGAAATAGGTTG-3′ (LNA gapmer, pattern and linkages not given here) [anti-sense oligonucleotides] | significant suppressed | significant suppressed |  |  |  | silencing efficacy of lnc-FAM164A1 ([1]; human macrophages, FIG. 11A): at least 50%; LPS-induced TNF-α mRNA expression and protein release [2, 5]: significant suppressed; expression of anti-inflammatory cytokine IL-10 ([2]; control and LPS-treated macrophages): no changes
2 | 5′-ucAccAuuAucuucAuAcudTsdT-3′ (sense mUmCrAmCmCrAmUmUrAmUmCmUmUmCrAmUrAmCmUdT*dT; antisense rArGmUrArUrGrArArGrAmUrArArUrGrGrUrGrAdT*dT; siRNA) [#5] | decreased expression | decreased expression | higher potency of silencing than the others | No significant change |  | 
3 | 5′-uguGcuAAAAuAcuGAGAudTsdT-3′ (sense mUmGmUrGmCmUrArArArAmUrAmCmUrGrArGrAmUdT*dT; antisense rArUrCrUmCrArGmUrArUrUrUmUrArGmCrAmCrAdT*dT; siRNA) [#8] | decreased expression | decreased expression | higher potency of silencing than the others | No significant change |  | 
4 | Cc1ccc(S(=O)(=O)/C=C/C#N)cc1 [Bay 11-7802] |  |  |  |  |  | transcription of cytokines (IL-1β, IL-6 and TNF-α mRNA) [3]: blocks the transcription; transcription of lnc-FAM164A1 [3]: blocks the transcription
5 | IL-6: human IL-6, pro-inflammatory cytokine used as stimulus at 10 ng/mL |  |  |  |  | increased the expression | 
6 | TNF-α |  |  |  |  | increased the expression | 

— US20200237800A1, “METHODS AND COMPOSITIONS FOR THE TREATMENT OF INFLAMMATORY DISEASE” (THE BRIGHAM AND WOMEN'S HOSPITAL, INC., priority 2017, published 2020)
